According to PMC6396024, “Artemin and an Artemin-Derived Peptide, Artefin, Induce Neuronal Survival, and Differentiation Through Ret and NCAM” (Frontiers in Molecular Neuroscience, 2019):
Bridge positions count the residues as written; N and C are the ends. Ends that are not written are not given here. I, II: the chains in the order shown.

How the values were obtained:
Format in all cases: cell-based, Wistar rat
[1] = system: FGFR; cerebellar granule neurons (CGNs); test: Neurite outgrowth in CGNs with FGFR-inhibitor SU5402; conditions: SU5402 20, 40, 80 μM; ARTN 0.21 nM or artefin 1.4 μM; p < 0.01
Method: (§1) Cerebellar granule neurons (CGNs) were prepared from 7-day-old Wistar rat pups (Charles River Laboratories, Sulzfeld, Germany) as previously described ([Schousboe et al., 1989]). Briefly, pups were decapitated, and the cerebellum was removed and cleared from blood vessels and meninges in ice-cold modified Krebs-Ringer buffer. The cerebellum was dissociated by chopping and trypsinization. Cells were washed in Krebs-Ringer buffer containing DNAse I (Sigma, St. Louis, MO, United States) and soybean trypsin inhibitor (Sigma) to stop trypsinization, and the remaining tissue pieces were pelleted by centrifugation. Cells were then washed in Krebs-Ringer buffer containing Ca^2+ and Mg^2+ and re-suspended in appropriate Neurobasal^TM medium (Invitrogen, Taastrup, Denmark) with supplements depending on the experiment.
Cerebellar granule neurons CGNs were re-suspended in Neurobasal^TM medium supplemented with 2% (v/v) B27, 0.5% (v/v) glutamax, 100 U/ml penicillin, 100 μg/ml streptomycin, 0.4% (w/v) BSA, and 20 mM HEPES and were seeded in 8-well LabTek Permanox chamber slides (Nunc) at a density of 1 × 10^4 cells/cm^2. Various concentrations of ARTN, artefin, scrambled artefin, or reversed artefin were added to neurons immediately after seeding. For the RET inhibition assay, the inhibitory goat anti-mouse RET antibody (4.1 μg/ml; R&D systems, Abingdon, United Kingdom) or control goat IgG (4.1 μg/ml; Santa Cruz Biotechnology, Dallas, TX, United States) were added to neurons 1 h before stimulation with ARTN (0.042 nM) […]. For the competition assay between growth factor and mimetic peptide, a combination of ARTN (2.1 nM) and artefin (4.2 μM) was added to the cells immediately after seeding. […]
To estimate neurite outgrowth, neurons were fixated 24 h after stimulation and stained with rabbit anti-growth-associated-protein-43 (GAP-43) antibody (Chemicon International, Inc., Temecula, CA, United States) or anti-GFP antibody (for transfection experiment) overnight at 4°C followed by incubation with secondary Alexa-conjugated goat anti-rabbit antibodies (Invitrogen, Taastrup, Denmark). In case of experiments with plasmid transfection, the transfection efficiency was ca. 20% of total cells and the neurite outgrowth was evaluated only in GFP-positive, i.e., transfected, cells. […]
Computer-assisted fluorescent microscopy was performed using a Nikon Diaphot 300 inverted microscope (Nikon) equipped with a Nikon Plan 20× objective and coupled to a video camera (Grundig Electronics, Germany). For each condition in each experiment, including the experiment with transfections, images of approximately 200 cells were recorded in systematic series of fields of view, and neurite outgrowth was quantified using a stereological approach as previously described ([Rønn et al., 2000]). […]

[2] = system: RET; cerebellar granule neurons (CGNs); test: Neurite outgrowth in CGNs with anti-RET antibody; conditions: for neurite outgrowth without antibody: ARTN 0.042 nM or artefin 0.47 μM, versus control; for neurite outgrowth with anti-RET antibody / neurite outgrowth with control IgG: 1 h before ARTN 0.042 nM or artefin 0.47 μM; for neurite outgrowth with control IgG: control IgG 4.1 μg/ml
Method: as §1
(§2) Cerebellar granule neurons CGNs were re-suspended in Neurobasal^TM medium supplemented with 2% (v/v) B27, 0.5% (v/v) glutamax, 100 U/ml penicillin, 100 μg/ml streptomycin, 0.4% (w/v) BSA, and 20 mM HEPES and were seeded in 8-well LabTek Permanox chamber slides (Nunc) at a density of 1 × 10^4 cells/cm^2. Various concentrations of ARTN, artefin, scrambled artefin, or reversed artefin were added to neurons immediately after seeding. For the RET inhibition assay, the inhibitory goat anti-mouse RET antibody (4.1 μg/ml; R&D systems, Abingdon, United Kingdom) or control goat IgG (4.1 μg/ml; Santa Cruz Biotechnology, Dallas, TX, United States) were added to neurons 1 h before stimulation with ARTN (0.042 nM) […]. For the competition assay between growth factor and mimetic peptide, a combination of ARTN (2.1 nM) and artefin (4.2 μM) was added to the cells immediately after seeding. To inhibit Fibroblast growth factor receptor (FGFR) pharmacologically, inhibitor of FGFR, SU5402 (Sigma), was added to the growth medium in serial dilutions of 20, 40, and 80 μM immediately after plating of CGNs, followed by addition of either P2-d (8 μg/ml), ARTN (0.21 nM), or artefin (1.4 μM) 1 h after the plating.
(§3) To estimate neurite outgrowth, neurons were fixated 24 h after stimulation and stained with rabbit anti-growth-associated-protein-43 (GAP-43) antibody (Chemicon International, Inc., Temecula, CA, United States) or anti-GFP antibody (for transfection experiment) overnight at 4°C followed by incubation with secondary Alexa-conjugated goat anti-rabbit antibodies (Invitrogen, Taastrup, Denmark). In case of experiments with plasmid transfection, the transfection efficiency was ca. 20% of total cells and the neurite outgrowth was evaluated only in GFP-positive, i.e., transfected, cells. For representative pictures, cells were additionally co-stained with Hoechst 33258.
(§4) Computer-assisted fluorescent microscopy was performed using a Nikon Diaphot 300 inverted microscope (Nikon) equipped with a Nikon Plan 20× objective and coupled to a video camera (Grundig Electronics, Germany). For each condition in each experiment, including the experiment with transfections, images of approximately 200 cells were recorded in systematic series of fields of view, and neurite outgrowth was quantified using a stereological approach as previously described ([Rønn et al., 2000]).
FIGURE 6 Inhibition of ARTN-induced (A) and artefin-induced (B) neurite outgrowth in CGNs by anti-RET antibody. CGNs were pre-treated directly after plating for 1 h with anti-RET antibody or control IgG in concentrations 4.1 μg/ml before stimulating with ARTN (0.042 nM) or artefin (0.47 μM).

[3] = system: cerebellar granule neurons (CGNs); test: Neurite outgrowth assay in CGNs; conditions: 24 h; for maximum level of neurite outgrowth: untreated control = 100%, mean of four independent experiments; for neurite outgrowth, single agent in competition assay: ARTN 2.1 nM alone or artefin 4.2 μM alone, paired t-test versus control; for overall neuritogenic effect: ARTN 0.013–2.1 nM, artefin 0.16–37.9 μM, one-way ANOVA
Method: as §1, §2, §3, §4
FIGURE 3 Neurite outgrowth induced by ARTN (A), artefin-dendrimer (B), and artefin-monomer (C) in CGNs. Cells were stimulated with ARTN (0.013, 0.042, 0.13, 0.42, and 2.1 nM) or artefin (0.16, 0.47, 1.4, 4.2, 12.6, and 37.9 μM) for 24 h. For the unstimulated control, the absolute length of neurites was 11.47 ± 1.5 μm. Results from four independent experiments are expressed as percentage of untreated control set to 100% and presented as mean ± SEM. The mean neurite outgrowth lengths were compared using one-way ANOVA for repeated measurements. The effect of individual concentrations of ARTN and artefin was compared to control using one-way ANOVA with Dunnett’s post-hoc test, ^∗p < 0.05; ^∗∗p < 0.01. […]

Molecule | neurite outgrowth effect in the presence of SU5402 [1] | neurite outgrowth without antibody [2] | neurite outgrowth with anti-RET antibody ([2]; anti-RET antibody 4.1 μg/ml) | neurite outgrowth with anti-RET antibody versus unstimulated control ([2]; anti-RET antibody 4.1 μg/ml, artefin 0.47 μM, p < 0.01) | neurite outgrowth with control IgG [2] | concentration of maximum neurite outgrowth ([3]; artefin as dendrimer) [µM] | neurite outgrowth compared to ARTN ([3]; artefin dendrimer, higher length of neurites) | maximum level of neurite outgrowth ([3]; artefin as dendrimer) | neurite outgrowth, single agent in competition assay [3] | overall neuritogenic effect [3] | neurite outgrowth effect of artefin in the presence of ARTN ([3]; artefin 4.2 μM co-incubated with ARTN 2.1 nM, p < 0.001 versus artefin alone) | neurite outgrowth, sequence specificity ([3]; tetramers, 4.2 μM, paired t-test versus untreated control) | concentration of maximum neurite outgrowth [3] [µM] | dose-response of neurite outgrowth ([3]; 0.013–2.1 nM)
I: RSPHDLSLASLLGAGKK-NH2 / II: RSPHDLSLASLLGAGK / III: RSPHDLSLASLLGAG / IV: RSPHDLSLASLLGAG (amide I:16-IV:C, I:17-II:C, II:16-III:C; C-terminus assumed) [artefin] | dose-dependently inhibited the neurite outgrowth effect of artefin | significantly increased when compared to the control (p < 0.01) | statistically significant reduction of artefin-induced neurite outgrowth (p < 0.01 versus artefin alone) | still significantly different from unstimulated control | did not significantly alter the neuritogenic effect of artefin | 4.2 | more effective (higher length of neurites) than ARTN | 404 % of control | significant increase in neurite outgrowth (p < 0.001) | statistically significant (F = 9.723, p < 0.0001) | eliminated | statistically significant increase in neurite length when compared to the control condition (p < 0.01) |  | 
recombinant human Artemin (ARTN) (ligand, UniProt Q5T4W7 108-220, looked up, Artemin (ARTN), human, UniProt D3DPX9; source: bought: R&D Systems) AGGPGSRARAAGARGCRLRSQLVPVRALGLGHRSDELVRFRFCSGSCRRARSPHDLSLASLLGAGALRPPPGSRPVSQPCCRPTRYEAVSFMDVNSTWRTVDRLSATACGCLG | completely abolished in the presence of serially diluted inhibitor | significantly higher level of neurite outgrowth than control cultures | completely abolished the neurite elongation effect of ARTN |  | did not affect the ARTN-induced neurite outgrowth |  |  | 210 % of control | equivalent to that of the control condition | statistically significant (F = 5.069, p < 0.01) |  |  | 4.2e-05 | bell-shaped dose-response manner
